In the NIST ThermoML archive (doi:10.1016/j.fluid.2016.07.022):

Experiments:
[1] = 101.33 kPa, Liquid; for viscosity: Falling or rolling sphere viscometry; for speed of sound: Frequency=3 MHz, Single path-length method; for mass density: Vibrating tube method
[2] = wn = mass fraction of the nth substance listed; settings: 298.15 K, 100 kPa, Liquid; for viscosity: Falling or rolling sphere viscometry; for speed of sound: Frequency=3 MHz, Single path-length method; for mass density: Vibrating tube method

CCCCC(=O)[O-].CCCC[NH2+]CCO [N-(2-hydroxyethyl)butan-1-aminium pentanoate]
[1]
Settings | mass density [kg/m3] | speed of sound [m/s] | viscosity [mPa·s]
293.15 K | 970 | 1460 | 896.3
298.15 K | 966.5 | 1442.3 | 684.1
303.15 K | 963 | 1425.1 | 505.8
308.15 K | 959.4 | 1408.3 | 349.9
313.15 K | 955.8 | 1391.8 | 244.1
318.15 K | 952.2 | 1375.7 | 177.1
323.15 K | 948.5 | 1359.6 | 131.1
328.15 K | 944.8 | 1343.8 | 98.1
333.15 K | 941.1 | 1328 | 73.9
338.15 K | 937.4 | 1312.2 | 57.9
343.15 K | 933.6 | 1296.6 | 45.4

CCC(=O)[O-].CCCC[NH2+]CCO [N-(2-hydroxyethyl)butan-1-aminium propionate]
[1]
Settings | mass density [kg/m3] | speed of sound [m/s] | viscosity [mPa·s]
293.15 K | 1004.9 | 1513.8 | 675.6
298.15 K | 1001.4 | 1496.1 | 502.6
303.15 K | 997.9 | 1478.9 | 385.1
308.15 K | 994.4 | 1462.2 | 282.1
313.15 K | 990.8 | 1445.9 | 212
318.15 K | 987.3 | 1429.7 | 155
323.15 K | 983.6 | 1413.7 | 115.6
328.15 K | 979.9 | 1397.4 | 87.6
333.15 K | 976.3 | 1381.6 | 67.4
338.15 K | 972.5 | 1365.8 | 52.4
343.15 K | 968.8 | 1350.1 | 41.6

CCCC(=O)[O-].CCCC[NH2+]CCO [N-(2-hydroxyethyl)butan-1-aminium butyrate] + O
[2]
Settings | mass density [kg/m3] | speed of sound [m/s] | viscosity [mPa·s]
w2 = 0.002762 | 980.15 | 1464.6 | 197.67
w2 = 0.004186 | 981.17 | 1466.2 | 190.86
w2 = 0.005795 | 982.18 | 1467.9 | 185.52
w2 = 0.006761 | 982.74 | 1468.9 | 182.63

CCCC[NH2+]CCO.O=C[O-] [N-(2-hydroxyethyl)butan-1-aminium formate]
[1]
Settings | mass density [kg/m3] | speed of sound [m/s] | viscosity [mPa·s]
293.15 K | 1038.1 | 1616.5 | 474.4
298.15 K | 1035.1 | 1602.4 | 332.8
303.15 K | 1032.1 | 1588.4 | 234.2
308.15 K | 1029.1 | 1574.7 | 170.2
313.15 K | 1026.1 | 1561.4 | 128.3
318.15 K | 1023.1 | 1548.2 | 96.9
323.15 K | 1020.1 | 1535.1 | 75
328.15 K | 1017 | 1522.2 | 57.3
333.15 K | 1013.9 | 1509.2 | 45.7
338.15 K | 1010.9 | 1496.4 | 36.3
343.15 K | 1007.8 | 1483.4 | 29.3

CC(=O)[O-].CCCC[NH2+]CCO [N-(2-hydroxyethyl)butan-1-aminium acetate]
[1]
Settings | mass density [kg/m3] | speed of sound [m/s] | viscosity [mPa·s]
293.15 K | 1021.2 | 1566.5 | 548.2
298.15 K | 1017.8 | 1546.5 | 421.6
303.15 K | 1014.3 | 1528.1 | 295.4
308.15 K | 1010.8 | 1510.8 | 214.5
313.15 K | 1007.3 | 1494 | 158.4
318.15 K | 1003.8 | 1477.6 | 119
323.15 K | 1000.3 | 1461.4 | 89.4
328.15 K | 996.6 | 1445.2 | 68.6
333.15 K | 993 | 1429.3 | 54
338.15 K | 989.3 | 1413.2 | 42.9
343.15 K | 985.6 | 1397.2 | 34.5

CCCC(=O)[O-].CCCC[NH2+]CCO [N-(2-hydroxyethyl)butan-1-aminium butyrate]
[1]
Settings | mass density [kg/m3] | speed of sound [m/s] | viscosity [mPa·s]
293.15 K | 983.7 | 1484.6 | 748.6
298.15 K | 980.1 | 1466.6 | 576.8
303.15 K | 976.6 | 1449 | 435.9
308.15 K | 973 | 1431.9 | 318.9
313.15 K | 969.4 | 1415.2 | 231.6
318.15 K | 965.7 | 1398.7 | 158.1
323.15 K | 962 | 1382.4 | 122.4
328.15 K | 958.3 | 1366.2 | 92.6
333.15 K | 954.5 | 1350.2 | 69.8
338.15 K | 950.7 | 1334.1 | 55.2
343.15 K | 946.9 | 1318.2 | 43.1
